Assay results: the supplement of paper PMC10307832

Assays:
Motesanib + Luminespib = compound: CC1(C)CNc2cc(NC(=O)c3cccnc3NCc3ccncc3)ccc21 [Motesanib] + CCNC(=O)c1noc(-c2cc(C(C)C)c(O)cc2O)c1-c1ccc(CN2CCOCC2)cc1 [Luminespib] (partner 0.01 µM); assay: relative viability (nuclei count vs DMSO), 5 days (fraction); higher = more cells survive
Procedure, shortened: (§1)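 Dosing by pin tool came one day after lung cancer cell lines were seeded in 1536-well plates, using either one drug or a fixed anchor-drug dose plus five library-drug doses (not always all listed) in √10 steps. After 5 days, nuclei were counted on 4× images. Relative viability is treated-well nuclei count divided by vehicle-well nuclei count, and values are medians of duplicate plates.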

Motesanib + Dasatinib = compound: CC1(C)CNc2cc(NC(=O)c3cccnc3NCc3ccncc3)ccc21 [Motesanib] + Cc1nc(Nc2ncc(C(=O)Nc3c(C)cccc3Cl)s2)cc(N2CCN(CCO)CC2)n1 [Dasatinib] (partner 0.075 µM); assay: as above
Procedure, shortened: as §1

Cell Line	relative viability (Motesanib + Luminespib; first compound 0.01 µM)	relative viability (Motesanib + Luminespib; first compound 0.03162 µM)	relative viability (Motesanib + Luminespib; first compound 0.1 µM)	relative viability (Motesanib + Luminespib; first compound 0.3162 µM)	relative viability (Motesanib + Luminespib; first compound 1 µM)	relative viability (Motesanib + Dasatinib; first compound 0.01 µM)	relative viability (Motesanib + Dasatinib; first compound 0.03162 µM)	relative viability (Motesanib + Dasatinib; first compound 0.1 µM)	relative viability (Motesanib + Dasatinib; first compound 0.3162 µM)	relative viability (Motesanib + Dasatinib; first compound 1 µM)
NCI-H647	0.122	0.144	0.387	0.165	0.216	0.194	0.169	0.151	0.191	0.221
NCI-H2023	0.778	0.687	0.855	0.811	0.783	0.576	0.476	0.575	0.59	0.662
NCI-H23		0.193	0.209	0.205	0.222	0.881	0.737	0.662	0.892	0.746
NCI-H1944	0.79	0.785	0.749	0.772	0.78	0.205	0.215	0.25	0.225	0.231
NCI-H1793	0.26	0.196	0.199	0.463	0.182	0.393	0.388	0.376	0.416	0.405
NCI-H520	0.22	0.276	0.27	0.196	0.242	0.208	0.196	0.21	0.226	0.218
NCI-H460	0.0344	0.0382	0.0342	0.0458	0.0311	0.406	0.481	0.525	0.63	0.626
EKVX	0.847	0.836	0.833	0.877	0.826	0.592	0.462	0.527	0.654	0.505
NCI-H358	0.317	0.333	0.402	0.479	0.369	0.14	0.155	0.133	0.2	0.158
EPLC-272H	0.302	0.268		0.233	0.266	0.344	0.405		0.421	0.287
NCI-H1563	0.523	0.504	0.54	0.542	0.487	0.424	0.44	0.447	0.473	0.421
NCI-H1395	0.662	0.665	0.65	0.876	0.866	0.425	0.476	0.42	0.443	0.417
NCI-H2126	0.9	0.901	0.963	0.933	0.961	0.598	0.541	0.597	0.545	0.635
HCC-78						0.342	0.406	0.291	0.391	0.437
